In data set [1] the test system is PI4KIIIα. On the set-up: method as in PMID 23944386. Particulars: cited from earlier work.
For data set [2], the system named is a wide variety of DNA and RNA viruses. The data set is described as follows: Antiviral screening against a wide variety of DNA and RNA viruses. In kind it is cell-based.
Data set [3] deals with TK+ VZV Strain (OKA). The data set is described as follows: microbe, parasite or virus in culture. In kind it is cell-based, varicella-zoster virus. The settings on record: Human alphaherpesvirus 3, HEL, read-out: Antiviral Activity EC50 TK+ VZV Strain (OKA).
Data set [4] relates to human cytomegalovirus AD-169 Strain. The data set is described as follows: Antiviral activity against human cytomegalovirus AD-169 strain in HEL cell cultures. In kind it is cell-based.
The subject of data set [5] is HEL cells. Particulars: minimum cytotoxic concentration.
The test system of data set [6] is L1210, CEM, HeLa, HMEC-1 cell lines. The data set is described as follows: Cytostatic activity against the tested cell lines. In kind it is cell-based.
For data set [7], the system named is human T-lymphocyte (CEM). The data set is described as follows: Inhibition of proliferation of human T-lymphocyte CEM cells. It is filed as cell-based. Particulars: 72 h, read-out: IC50 CEM.
Data set [8] has as its system human cervix carcinoma (HeLa). The data set is described as follows: Inhibition of proliferation of human cervix carcinoma HeLa cells. In kind it is cell-based. The settings on record: 96 h, read-out: IC50 HeLa.
The subject of data set [9] is TK− VZV Strain (07-1). The data set is described as follows: microbe, parasite or virus in culture. It is filed as cell-based, varicella-zoster virus. Particulars: Human alphaherpesvirus 3, HEL, read-out: Antiviral Activity EC50 TK− VZV Strain (07-1).
Data set [10] relates to murine leukemia (L1210). The data set is described as follows: Inhibition of proliferation of murine leukemia L1210 cells. In kind it is cell-based. Particulars: Mus musculus, L1210, 48 h, read-out: IC50 L1210.
The test system of data set [11] is immortalized human dermal microvascular endothelial cells (HMEC-1). The data set is described as follows: Inhibition of proliferation of HMEC-1 cells. It is filed as cell-based. Particulars: HMEC-1, read-out: IC50 HMEC-1.
Data set [12] has as its system human cytomegalovirus Davis Strain. The data set is described as follows: Antiviral activity against human cytomegalovirus Davis strain in HEL cell cultures. It is filed as cell-based.
A short description of data set [13]: in vitro. Particulars: human.
The subject of data set [14] is human cytomegalovirus (HCMV). The data set is described as follows: Antiviral activity against HCMV, AD-169 and Davis strains (text summaries). It is filed as cell-based. Particulars: Human betaherpesvirus 5, AD169; HEL cells; both AD-169 and Davis strains; read-out: EC50 against HCMV (range over AD-169 and Davis strains).
Data set [15] has as its system herpes simplex virus 2 (HSV-2). On the set-up: method as in PMID 21969760. Particulars: cited from earlier work.
Data set [16] relates to vaccinia virus (VACV). Particulars: cited from earlier work.
The test system of data set [17] is herpes simplex virus 1 (HSV-1). Details: method as in PMID 21969760. The settings on record: cited from earlier work.
Data set [18] deals with vaccinia virus. Particulars: E6SM cell cultures; cited from earlier work.
Data set [19] deals with tobacco mosaic virus (TMV). On the set-up: method as in PMID 18259148. Particulars: in vivo; cited from earlier work.
The subject of data set [20] is influenza A virus (H5N1). The settings on record: cited from earlier work.
The mark [21] stands for this setting: Human betaherpesvirus 5, AD169, HEL; read-out: Antiviral Activity EC50 AD-169 Strain.
Where [22] appears, read: Human betaherpesvirus 5, HEL; read-out: Antiviral Activity EC50 Davis Strain.

Each structure is given as a SMILES string. ≈ marks a conversion by molar mass, not a printed value. Like-named read-outs stand apart in the source and are kept apart here.

Consider `COc1ncc(-c2ccc3nc(N)n(-c4ccccc4C(F)(F)F)c(=O)c3c2)cc1S(=O)(=O)Nc1ccc(F)cc1F` (atropisomer, axis not shown; (aS)) [(aS)-9], for which, in data set [1], the “pIC50 PI4KIIIα” value is on record as 8.3.
On to `CCOP(=O)(OCC)[C@H]1C[C@@H](c2nc3ccc(Br)cc3c(=O)[nH]2)ON1C` (relative stereo) [cis-11a, Diethyl cis-[5-(6-bromo-4-oxo-3,4-dihydroquinazolin-2-yl)-2-methylisoxazolidin-3-yl]phosphonate], for which, in data set [2], the “Activity against tested viruses (in words)” value (“Activity” below) is on record as “not active”. The EC50 in data set [3] is over 100 µM; in data set [4] (setting [21]) it was over 100 µM; in data set [9], over 100 µM; in [12] (setting [22]), 100 µM. Further, the “Cytotoxicity Cell Morphology MCC” value in [5] (Table 2 (VZV experiments)) is given as over 100 μM; in data set [5] (Table 3 (HCMV experiments)), 20 μM. Besides, the “Inhibition of proliferation of the tested cell lines (in words)” value (“Inhibition of proliferation … (in words)” for short) in [6] is on record as “did not inhibit proliferation”. Also, the IC50 in data set [7] was 242 ± 7 µM; in [8], over 250 µM; in [10], over 250 µM; in data set [11] it was 140 ± 54 µM.
On to `CCOP(=O)(OCC)[C@H]1C[C@H](c2nc3ccc(Br)cc3c(=O)[nH]2)ON1C` (relative stereo) [trans-11a, Diethyl trans-[5-(6-bromo-4-oxo-3,4-dihydroquinazolin-2-yl)-2-methylisoxazolidin-3-yl]phosphonate], for which, in data set [2], the “Activity” value is “not active”. For the same compound, the EC50 is over 100 µM in data set [3], over 100 µM in data set [4] (setting [21]), 66.9 µM in data set [9] and over 100 µM in data set [12] (setting [22]). In addition, the “Cytotoxicity Cell Morphology MCC” value in data set [5] (Table 2 (VZV experiments)) was over 100 μM; in [5] (Table 3 (HCMV experiments)), 100 μM. In data set [6], the “Inhibition of proliferation … (in words)” value is “did not inhibit proliferation”. The IC50 amounted to 148 ± 2 µM in data set [7], 196 ± 20 µM in [8], 126 ± 19 µM in data set [10] and 85 ± 13 µM in data set [11].
Turning to `CCOP(=O)(OCC)[C@H]1C[C@H](c2nc3ccc(Br)cc3c(=O)n2Cc2ccc([N+](=O)[O-])cc2)ON1C` (relative stereo) [trans-11e, Diethyl trans-{5-[6-bromo-3-(4-nitrobenzyl)-4-oxo-3,4-dihydroquinazolin-2-yl]-2-methylisoxazolidin-3-yl}phosphonate], the EC50 in data set [3] was 6.84 µM; in data set [4] (setting [21]), over 20 µM; in data set [9], 7.51 µM; in data set [12] (setting [22]), over 20 µM. In addition, the “Cytotoxicity Cell Morphology MCC” value is on record as 20 μM in [5] (Table 2 (VZV experiments)) and 100 μM in data set [5] (Table 3 (HCMV experiments)). In addition, the IC50 in data set [7] is 17 ± 12 µM; in data set [8] it was 24 ± 9 µM; in data set [10], 18 µM; in data set [11], 26 ± 6 µM.
Regarding `CCOP(=O)(OCC)[C@H]1C[C@H](c2nc3ccc(Br)cc3c(=O)n2C)ON1C` (relative stereo) [trans-11j, Diethyl trans-{5-[6-bromo-3-methyl-4-oxo-3,4-dihydroquinazolin-2-yl]-2-methylisoxazolidin-3-yl}phosphonate], the “Activity” value in [2] is “not active”. For the same compound, the 50% effective concentration (EC50) is over 4 µM in [3], over 20 µM in data set [4] (setting [21]), over 4 µM in data set [9] and over 100 µM in data set [12] (setting [22]). The “Cytotoxicity Cell Morphology MCC” value in data set [5] (Table 2 (VZV experiments)) and in [5] (Table 3 (HCMV experiments)) was 20 μM in each case. The “Inhibition of proliferation … (in words)” value in data set [6] is on record as “did not inhibit proliferation”. Further, the concentration for half-maximal inhibition (IC50) in [7] was 128 ± 21 µM; in data set [8] it was 175 ± 105 µM; in [10], 138 ± 19 µM; in data set [11], over 250 µM.
Regarding `CCOP(=O)(OCC)[C@H]1C[C@H](c2nc3ccc(Br)cc3c(=O)n2CC)ON1C` (relative stereo) [trans-11k, Diethyl trans-{5-[6-bromo-3-ethyl-4-oxo-3,4-dihydroquinazolin-2-yl]-2-methylisoxazolidin-3-yl}phosphonate], the “Activity” value in data set [2] was “not active”. Moreover, the concentration for a half-maximal effect (EC50) in data set [3] is over 20 µM; in data set [4] (setting [21]), over 20 µM; in data set [9] it was over 20 µM; in data set [12] (setting [22]), 44.7 µM. In addition, the “Cytotoxicity Cell Morphology MCC” value is given as 100 μM in data set [5] (Table 2 (VZV experiments)) and 20 μM in data set [5] (Table 3 (HCMV experiments)). Further, the “Inhibition of proliferation … (in words)” value in data set [6] is given as “did not inhibit proliferation”.
With `O=c1[nH]cc(F)c(=O)[nH]1` [5-Fluorouracil, reference compound], the half-inhibitory concentration (IC50) was found to be 18 ± 5 µM in data set [7] (cell proliferation, three days); 0.54 ± 0.12 µM in data set [8] (cell proliferation, four days); 0.33 ± 0.17 µM in data set [10] (cell proliferation, two days).
For `Nc1nc2c(ncn2COCCO)c(=O)[nH]1` [Acyclovir], the CC50 in data set [13] is over 350 µM.
The compound `O=c1[nH]c(=O)n([C@H]2C[C@H](O)[C@@H](CO)O2)cc1/C=C/Br` [Brivudin, reference compound] yielded a CC50 in [13] of over 300 µM. The concentration giving a half-maximal response (EC50) in data set [3] came out at 0.023 ± 0.008 µM; in data set [9] it was 31.9 ± 16.1 µM. Also, the “Cytotoxicity Cell Morphology MCC” value in data set [5] (Table 2 (VZV experiments)) was over 300 μM.
`Nc1ccn(C[C@@H](CO)OCP(=O)(O)O)c(=O)n1` [Cidofovir, reference compound]: the CC50 in data set [13] was over 300 µM. For the same compound, the results for the 50% effective concentration (EC50) in data set [4] (setting [21]), in data set [12] (setting [22]) and in [14] were 1.5 ± 0.2 µM, 1.7 ± 0.4 µM and 1.5 to 1.7 µM, respectively. Besides, the “Cytotoxicity Cell Morphology MCC” value in data set [5] (Table 3 (HCMV experiments)) was over 300 μM.
In turn, `Nc1nc(O)c2ncn(COC(CO)CO)c2n1` [Ganciclovir, reference compound] yielded a CC50 in data set [13] of over 350 µM. For the same compound, the EC50 came out at 16.9 ± 6.9 µM in [4] (Human betaherpesvirus 5, AD169, HEL, read-out: Antiviral Activity EC50 AD-169 Strain) and 7.7 ± 0.9 µM in data set [12] (Human betaherpesvirus 5, HEL, read-out: Antiviral Activity EC50 Davis Strain). Further, the “Cytotoxicity Cell Morphology MCC” value in [5] (Table 3 (HCMV experiments)) was over 350 μM.
Turning to `O=C(O)c1cc(Br)ccc1-n1c(-c2ccccc2)nc2ccc(Br)cc2c1=O` [compound 1, 5-bromo-2-(6-bromo-4-oxo-2-phenyl-4H-quinazolin-3-yl)-benzoic acid], the “EC50 HSV-2” value in [15] was 12 µg/mL (≈ 24 µM). Further, in [16], the “EC50 vaccinia virus (VACV)” value was 12 µg/mL (≈ 24 µM). For the same compound, the “EC50 HSV-1” value in data set [17] is 12 µg/mL (≈ 24 µM).
Turning to `CCc1nc(-n2c(-c3ccccc3)nc3ccc(Br)cc3c2=O)nc(N)c1-c1ccc(Cl)cc1` [compound 2], the MIC vaccinia virus in data set [18] was 1.92 µg/mL (≈ 3.6 µM).
Regarding `Cc1nc2ccc(Br)cc2c(=O)n1/N=C/c1ccccc1C(F)(F)F` [compound 3, 2-methyl-3-(substituted-benzalamino)-4(3H)-quinazolinone], the “curative effects against TMV” value in data set [19] is on record as 54%.
As to `Cc1ccc(C(=O)/C=C/c2nc3ccc(I)cc3c(=O)n2-c2cccc(C(F)(F)F)c2)cc1` [compound 4], the “inhibition rate against H5N1” value in data set [20] is on record as 38%.
On to `CCNC(=S)N/N=C/c1nc2ccc(I)cc2c(=O)n1-c1cccc(C(F)(F)F)c1` [compound 5], for which, in data set [20], the “inhibition rate against H5N1” value is recorded as 47%.
Consider `O=C(N/N=C/c1nc2ccc(I)cc2c(=O)n1-c1cccc(C(F)(F)F)c1)c1ccncc1` [compound 6], for which the “inhibition rate against H5N1” value in [20] is 25%.

In general, EC50 refers to the midpoint of the concentration-response curve. What is called IC50 is the concentration at which inhibition is half-maximal.

These data come from PMC6222691, “Isoxazolidine Conjugates of N3-Substituted 6-Bromoquinazolinones—Synthesis, Anti-Varizella-Zoster Virus, and Anti-Cytomegalovirus Activity” (Molecules : A Journal of Synthetic Chemistry and Natural …, 2018).
